# Laboratory results reported in paper PMC5503785 (Journal of clinical pharmacology, 2017).
# Where two headings read alike, the source gives them in different places.
# Tests used:
# [1] = format: in vivo, human; details: for ω CLR/F (L·h^−1): between-subject variability; for increase in veliparib exposure: covariate model
# PARP [2] = details: cited from earlier work
# PARP [3] = test system: PARP
# [4] = fixed in model; fraction renally excreted; cited from earlier work
# [5] = cited from earlier work
# CYP2D6 = details: in vitro study; cited from earlier work
# [6] = PBPK simulations, cited from earlier work
# PARP [7] = details: phase 0 study, single dose of veliparib; cited from earlier work
# [8] = bootstrap median, 250 replicates
# [9] = analysis by Li et al, one-compartment model
# [10] = population PK analysis by Salem et al, one-compartment model
# [11] = previously reported, based on NCA
smiles,measurement,setting,value
CC1(c2nc3c(C(N)=O)cccc3[nH]2)CCC(=O)N1 (centres unmarked) [M8],CLmet,[1]; [8],22.7 L/h
same,Qmet,[1]; [8],29.0 L/h
same,Vc_met,[1]; [8],23.5 L
same,Vp_met,[1]; [8],51.3 L
same,CLmet,[1]; final model estimate,22.8 L/h
same,Qmet,[1]; final model estimate,29.0 L/h
same,Vc_met,"[1]; final model estimate, metabolite central volume",23.6 L
same,Vp_met,"[1]; final model estimate, metabolite peripheral volume",51.4 L
same,potency compared to veliparib (fold less potent),PARP [2],approximately 5 fold
"C[C@]1(c2nc3c(C(N)=O)cccc3[nH]2)CCCN1 [veliparib, 2-[(R)-2-methylpyrrolidin-2-yl]-1H-benzimidazole-4-carboxamide]","expected ""true"" fraction converted to M8",[1]; 30% non-renal elimination * 72% CYP2D6 share,22%
same,accumulation on chronic dosing,"[1]; NCA approach, within dose range tested (50 to 500 mg b.i.d.)",Negligible accumulation
same,ω CLR/F (L·h^−1),[1]; bootstrap median,34.7%
same,ω CLR/F (L·h^−1),[1]; final model estimate,34.7%
same,CL/F,[1]; [8],17.3 L/h
same,Ka,[1]; [8],2.02 h⁻¹
same,"LBM effect on Vc/F, power_LBM",[1]; [8],1.21
same,Q/F,[1]; [8],17.9 L/h
same,Vc/F,[1]; [8],99.1 L
same,Vp/F,[1]; [8],47.5 L
same,tlag,[1]; [8],0.270 h
same,increase in veliparib exposure,[1]; mild renal function impairment (~25% decrease in CLCR),~ 10%
same,increase in veliparib exposure,[1]; moderate renal function impairment (~50% decrease in CLCR),~ 20%
same,dose proportionality,[1]; dose level from 50 to 500 mg,supported
same,Q/F,[1]; final model estimate,17.9 L/h
same,tlag,[1]; final model estimate,0.272 h
same,"LBM effect on Vc/F, power_LBM","[1]; final model estimate, covariate exponent",1.21
same,Vc/F (central volume of distribution),"[1]; final model estimate, typical subject LBM 48 kg",99.2 L
same,"CL/F (total clearance, CLR/F + CLNR/F)","[1]; final model estimate, typical subject LBM 48 kg, CLCR 95 mL/min",17.3 L/h
same,Ka,"[1]; final population PK model estimate, oral veliparib",2.02 h⁻¹
same,fm,"[1]; fixed in model, fraction metabolized to M8 assumed as 1−frenal",0.3 (fix)
same,Vd/F,"[1]; human, plasma, oral, Vd/F (=Vc/F+ Vp/F), final model, standardized to 48 kg LBM and 95 mL/min CLCR",147 L
same,contribution of CYP2D6 metabolism to veliparib total clearance,[1]; worked out from non-renal fraction and CYP2D6 share,~ 22%
same,Inhibition of PAR compared with pre-dose baseline,"PARP [3]; 50/50 mg dose level b.i.d., PBMC",~ 50%
same,Inhibition of PARP compared with pre-dose baseline,"PARP [3]; 500/500 mg dose level b.i.d., PBMC",~ 70%
same,"IC50 for PAR reduction (Emax model, veliparib plasma concentration as driver)","PARP [3]; PBMC, estimated with low precision",0.03 µg/mL
same,inhibition of PAR levels in PBMCs,PARP [3]; dose levels ranging from 50 to 500 mg,At least 50%
same,frenal,[4],0.7 (fix)
same,CL/F,[5]; [9],13.3 L/h
same,Vd/F,[5]; [9],126 L
same,CL/F,[5]; [10],20.9 L/h
same,Vd/F,[5]; [10],173 L
same,CL/F,[5]; [11],18 L/h
same,Vd/F,[5]; [11],145 L
same,share of overall veliparib metabolism accounted for by CYP2D6,CYP2D6,~ 72%
same,higher exposure versus extensive metabolizers,[6]; CYP2D6 poor metabolizers (PM),~ 20%
same,lower exposure versus extensive metabolizers,[6]; CYP2D6 ultra-extensive metabolizers (UM),~ 20%
same,inhibition of PAR levels in PBMC,PARP [7],Significant inhibition
